Literature values, collected in publication PMC2742322 (Bioorganic & medicinal chemistry letters, 2008).

Target: μ-opioid receptor (Cavia porcellus, UniProt A0ACM8Q262)
Details: read-out: IC50^μ (GPI); functional bioactivity

μ-opioid receptor, sequence (A0ACM8Q262 1-400): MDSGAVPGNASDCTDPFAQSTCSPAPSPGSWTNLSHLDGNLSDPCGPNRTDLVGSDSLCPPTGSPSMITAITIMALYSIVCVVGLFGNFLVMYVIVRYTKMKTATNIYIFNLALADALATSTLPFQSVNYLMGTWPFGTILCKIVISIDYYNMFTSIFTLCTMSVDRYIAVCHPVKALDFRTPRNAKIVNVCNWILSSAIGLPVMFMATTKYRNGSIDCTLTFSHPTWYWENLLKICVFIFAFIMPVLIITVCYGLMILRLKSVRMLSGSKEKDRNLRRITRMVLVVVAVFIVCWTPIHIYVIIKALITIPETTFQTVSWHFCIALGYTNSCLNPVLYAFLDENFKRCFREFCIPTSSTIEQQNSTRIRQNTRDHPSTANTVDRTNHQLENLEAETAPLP

Question: Which IC50 does the source give for Tyr^1-Pro^2-Trp^3-Phe^4-NH2 [EM-1] here?
Answer: 9.7 ± 2.21 nM
